Test results from patent US20090312575A1, “Process For Preparing A Benzoylbenzeneacetamide Derivative” (Medichem, S.A., priority 2008, published 2009).
Converted amounts (≈) assume the structure as drawn. Read-outs that look alike come from different tables or passages of the source.

Key:
[1] = polymorphic form after one year storage (XRD and IR); format: physicochemical; settings: one year at room temperature and ambient atmosphere conditions
Description: X-ray Powder Diffraction (XRD). The XRD diffractograms were obtained using a RX SIEMENS D5000 diffractometer with a vertical goniometer, a copper anodic tube, and radiation CuKα, λ=1, 54056 Á.
Infrared Spectra (IR). Fourier transform IR spectra were acquired on a Thermo Nicolet Nexus spectrometer, and polymorphs were characterized in potassium bromide pellets.
Analytical data: XRD: Form A, see FIG. 1; IR: see FIG. 2; DSC: see FIG. 7. Analytical data of the compound after one year at room temperature and ambient atmosphere conditions (XRD and IR): Form A.
Analytical data: XRD: Form B, see FIG. 3; DSC: see FIG. 8. Analytical data of the compound after one year at room temperature and ambient atmosphere conditions (XRD and IR): Form B.

[2] = solubility profile at room temperature in organic solvents; format: physicochemical
Description: Optionally, water can be added to the suspension earlier than the filtration. Further, this filtration step introduces an additional purification step.

| Compound | crystalline form after one year (XRD and IR) ([1]; listed as Example 5) | solubility ([2]; acetonitrile, organic solvent or mixture, acetonitrile (reaction mixture solvent), read-out: solubility in acetonitrile) [mg/mL] | solubility in tetrahydrofuran ([2]; tetrahydrofuran, room temperature) | crystalline form after one year (XRD and IR) ([1]; listed as Example 4) | solubility ([2]; 1:1 mixture of tetrahydrofuran/water, aqueous with cosolvent or surfactant or cyclodextrin, 1:1 tetrahydrofuran/water, room temperature, read-out: solubility in a 1:1 mixture of tetrahydrofuran/water) [mg/mL] | solubility ([2]; tetrahydrofuran, organic solvent or mixture, tetrahydrofuran, room temperature, read-out: solubility in tetrahydrofuran) [mg/mL] |
| --- | --- | --- | --- | --- | --- | --- |
| CSC(C(N)=O)c1cccc(C(=O)c2ccccc2)c1N (stereo not drawn) [compound (IV) Form B, 2-amino-3-benzoyl-α-(methylthio)benzeneacetamide] | Form B | ~5.9 (≈ 19.6 mM) | approx. 33 mg/mL | – | – | – |
| CSC(C(N)=O)c1cccc(C(=O)c2ccccc2)c1N (stereo not drawn) [compound (IV) Form A, 2-amino-3-benzoyl-α-(methylthio)benzeneacetamide] | – | – | – | Form A | ~50 (≈ 166 mM) | ~50 (≈ 166 mM) |
